{"source": "patent US11389396B2", "about": "“Tumescent antibiotic injection for treatment of chronic skin and soft tissue infections” (The Regents of the University of California, priority 2016, dated 2022)", "key": {"[1]": {"conditions": "in vivo; cited from earlier work"}, "[2]": {"tested_on": "MRSA strains", "conditions": "1 g/100 mL cefazolin in tumescent solution; cited from earlier work"}, "[3]": {"conditions": "healthy tissue; cited from earlier work"}, "[4]": {"experiment": "CT scans over seven hours of tumescent injections of saline containing iodine contrast", "type": "in vivo, Yucatan pig", "experimental": "To more accurately determine the timescale over which the local antibiotic concentration remains high, we performed CT scans over a long time period.\nThe figures are CTs viewing the abdomen of the pig with the head towards the top of the figure. Tumescent injections are seen as 4 rows, and 2 columns of large circular white regions, with injection volumes 20 mL, 10 mL, 5 mL and 2.5 mL from top row to bottom. There is one column of 4 tiny white dots along the center of the abdomen that are skin markers placed in the same axial plane as the location of the injections for reference. It is clear that the iodine concentration may remain high for several hours. While the 20 mL injections are clearly visible for 5 hours, the 2.5 mL injections are easily seen for only 3 hours.\nEach value along the lineout represents the max attenuation value below that point on a line perpendicular to the surface (Maximum Intensity Projection mode). For comparison, we measured the attenuation of a vial of pure infusate to be 500 HU, and the attenuation of normal subcutaneous tissue to be about −90 HU. A concentration equal to at least half the initial value (or attenuation of […]—half way between the extremes) is maintained for at least 4 hours."}, "[5]": {"experiment": "CT images roughly every 10 min of 20 mL tumescent injections, local fraction of contrast", "protocol": "In a different experiment we took CT images roughly every 10 min instead of every hour in order to see the initially rapid dynamics. An axial cross-sectional image is shown in FIG. 14 before and after two 20 mL tumescent injections on symmetric sides of the anesthetized adult Yucatan pig's abdomen.\nThe initial rise is due to the spreading of the tumescent fluid after the completion of the injection into unexpanded tissue. […] We verified this by multiplying the total volume and mean curves to get a measure of the “total contrast” that remains localized in the tumescence (FIG. 15 bottom, left). Dividing the total contrast curve by its maximum yields the “Localized Fraction” curves of FIG. 15 (bottom, right)."}}}
{"smiles": "CO/N=C(\\C(=O)N[C@@H]1C(=O)N2C(C(=O)O)=C(CSc3nc(=O)c(=O)[nH]n3C)CS[C@H]12)c1csc(N)n1", "note": "[Ceftriaxone]", "values": [{"measurement": "concentration shown to be safe, relative to 1 g/100 mL cefazolin", "setting": "[1]", "value": "35 times higher concentrations"}]}
{"smiles": "Cc1nnc(SCC2=C(C(=O)O)N3C(=O)[C@@H](NC(=O)Cn4cnnn4)[C@H]3SC2)s1", "note": "[cefazolin]", "values": [{"measurement": "concentration relative to the MIC", "setting": "[2]", "value": "above the MIC for most, if not all, MRSA strains"}]}
{"smiles": "CNC[C@H](O)c1ccc(O)c(O)c1", "note": "[epinephrine]", "values": [{"measurement": "systemic absorption time extended by use of a vasoconstrictor", "setting": "[3]", "value": "> 8", "unit": "h"}]}
{"smiles": "II", "note": "[iodine]", "values": [{"measurement": "time for which the injection is easily seen on CT", "setting": "[4]; 2.5 mL subcutaneous abdominal injection, saline with 2 g/100 mL iodine contrast, healthy adult Yucatan pig", "value": 3, "unit": "h"}, {"measurement": "time for which the injection is clearly visible on CT", "setting": "[4]; 20 mL subcutaneous abdominal injection, saline with 2 g/100 mL iodine contrast, healthy adult Yucatan pig", "value": 5, "unit": "h"}, {"measurement": "time for which a concentration of at least half the initial value is maintained", "setting": "[4]; CT lineouts, maximum intensity projection, attenuation 155 as half way point", "value": "at least 4 hours"}, {"measurement": "drop in the local fraction (take-up by lymph and capillaries)", "setting": "[5]; over the 70 minutes of the experiment, anesthetized adult Yucatan pig", "value": "~30", "unit": "%"}, {"measurement": "timescale of spontaneous spreading", "setting": "[5]; tumescent injection, CT", "value": "< 5", "unit": "min"}, {"measurement": "timescale of take up by the serum", "setting": "[5]; tumescent injection, CT", "value": "~1", "unit": "h"}]}
